In US11339163B2, “BRaf inhibitors and use thereof for treatment of cutaneous reactions” (Lutris Pharma Ltd., priority 2017, dated 2022):

Assays:
[1] = target: BRAF (V600E) (Homo sapiens, UniProt P15056, V600E); experiment: BRaf inhibitory activity assay; assay type: biochemical; conditions: read-out: Compound IC50 BRAF (V600E)
Description: (§1) In this assay, the BRaf inhibitory activity of the compound of formula I, where
(§2) Reactions were carried out at 10 μM ATP.

[2] = target: wild-type BRaf (Homo sapiens, UniProt P15056); experiment: BRaf inhibitory activity assay; assay type: biochemical; conditions: read-out: Compound IC50 BRAF
Description: as §1, §2

[3] = system: BALB/c-3T3 mouse fibroblasts; experiment: 3T3 neutral red uptake phototoxicity assay; assay type: cell-based; conditions: mouse, 24 h
Description: Therefore, the compounds of the present disclosure were screened for phototoxicity using the 3T3 natural red uptake assay.
In brief, BALB/c-3T3 mouse fibroblasts (originally obtained from ATCC) were seeded in 96-well plates at 12,000 cells per well, and grown for 24 hr. Test compounds and the positive control (chlorpromazine) were solubilized and serially diluted in DMSO. The negative control (histidine) was solubilized and diluted in HBSS. A dilution for all test articles was then made into HBSS at the final testing concentrations. At the start of the assay, the growth medium was removed from the plates and replaced with test agent dilution. Six replicates were used for each concentration. Cells were incubated in the dark with test article for 1 h, exposed to UVA light (2.5 J/cm2 over 18 min) and incubated 24 hrs. in the dark. A parallel non-irradiated plate was treated similarly, except it was stored in the dark, rather than illuminated.
For Neutral Red staining, medium was removed and fresh medium containing 25 μg/mL of Neutral Red (Sigma) was added. After three hours incubation, the cells were washed with PBS, and the cellular dye was solubilized with 1% acetic acid in 50% ethanol. Cellular Neutral Red was measured by its absorbance at 540 nm.
Data analysis: An IC50 (concentration that causes 50% reduction in viability) was calculated for each condition by linear interpolation.
A Photo-Irritation Factor (PIF) was calculated: PIF=IC50(−Irr)/IC50(+Irr)
PIF>5 indicates phototoxicity; 2<PIF<5 indicates probable phototoxicity; PIF<2 indicates no phototoxicity
In addition, the Mean Photo Effect (MPE) was calculated by comparison of the complete concentration-response curves. MPE is a weighted average of the difference in response of equivalent doses normalized by the shift in IC50.
MPE>0.15 indicates phototoxicity; 0.1<MPE<0.15 indicates probable phototoxicity; MPE<0.1 indicates no phototoxicity.

[4] = ex vivo skin permeation and penetration, MedFlux-HT diffusion cells; assay type: in vitro ADME; conditions: topical composition comprising LUT014; skin sample; after 24 hours; citrate/phosphate buffer pH 4.0 with 0.01% Brij
Description: An ex vivo permeation and penetration experiment for a topical composition comprising LUT-014 was conducted using MedFlux-HT™ continuous flow through diffusion cells. A skin sample was placed between donor and receptor compartments of the diffusion cell. The diffusion of the topical composition was measured using a citrate/phosphate buffer (pH 4.0) with 0.01% Brij as a receptor solution. LUT014 permeated into the skin sample was extracted using 90/10 acetonitrile/water as an extraction solvent.

[5] = system: minipigs; experiment: MTD Dermal Minipigs; assay type: in vivo; conditions: 5 mg/kg/day for up to 6 days
[6] = system: Salmonella typhimurium; experiment: In vitro Ames test, reverse mutation assay; assay type: cell-based
[7] = system: Escherichia coli; experiment: In vitro Ames test, reverse mutation assay; assay type: cell-based
[8] = BCOP study (eye irritation)
[9] = target: Abl(h) (Homo sapiens, UniProt P00519); experiment: KinaseProfiler kinase selectivity assay; assay type: biochemical
Description: (§3) All compounds were prepared to 50× final assay concentration in 100% DMSO. This working stock of the compound was added to the assay well as the first component in the reaction, followed by the remaining components. In the standard KinaseProfiler™ service, there is no pre-incubation step between the compound and the kinase prior to initiation of the reaction. The positive control wells contain all components of the reaction, except the compound of interest; however, DMSO (at a final concentration of 2%) is included in these wells to control for solvent effects. The blank wells contain all components of the reaction, with a reference inhibitor replacing the compound of interest. This abolishes kinase activity and establishes the base-line (0% kinase activity remaining).

[10] = target: CDK2/cyclinA(h) (Homo sapiens, UniProt P24941); experiment: KinaseProfiler kinase selectivity assay; assay type: biochemical
Description: as §3

[11] = target: CK2α2(h) (Homo sapiens, UniProt P19784); experiment: KinaseProfiler kinase selectivity assay; assay type: biochemical
Description: as §3

[12] = target: EphB4(h) (Homo sapiens, UniProt P54760); experiment: KinaseProfiler kinase selectivity assay; assay type: biochemical
Description: as §3

[13] = target: Fyn(h) (Homo sapiens, UniProt P06241); experiment: KinaseProfiler kinase selectivity assay; assay type: biochemical
Description: as §3

[14] = target: IGF-1R(h) (Homo sapiens, UniProt P08069); experiment: KinaseProfiler kinase selectivity assay; assay type: biochemical
Description: as §3

[15] = target: JAK2(h) (Homo sapiens, UniProt O60674); experiment: KinaseProfiler kinase selectivity assay; assay type: biochemical
Description: as §3

[16] = target: Lyn(h) (Homo sapiens, UniProt P07948); experiment: KinaseProfiler kinase selectivity assay; assay type: biochemical
Description: as §3

[17] = target: NEK2(h) (Homo sapiens, UniProt P51955); experiment: KinaseProfiler kinase selectivity assay; assay type: biochemical
Description: as §3

[18] = target: PAK2(h) (Homo sapiens, UniProt Q13177); experiment: KinaseProfiler kinase selectivity assay; assay type: biochemical
Description: as §3

[19] = target: PDGFRβ(h) (Homo sapiens, UniProt P09619); experiment: KinaseProfiler kinase selectivity assay; assay type: biochemical
Description: as §3

[20] = target: PI3 Kinase (p110β/p85α)(h) (Homo sapiens, UniProt P42338); experiment: KinaseProfiler kinase selectivity assay; assay type: biochemical
Description: as §3

[21] = target: PKG1α(h) (Homo sapiens, UniProt Q13976); experiment: KinaseProfiler kinase selectivity assay; assay type: biochemical
Description: as §3

[22] = target: p70S6K(h) (Homo sapiens, UniProt P23443); experiment: KinaseProfiler kinase selectivity assay; assay type: biochemical
Description: as §3

Sequence of PDGFRβ(h) (P09619 33-1106): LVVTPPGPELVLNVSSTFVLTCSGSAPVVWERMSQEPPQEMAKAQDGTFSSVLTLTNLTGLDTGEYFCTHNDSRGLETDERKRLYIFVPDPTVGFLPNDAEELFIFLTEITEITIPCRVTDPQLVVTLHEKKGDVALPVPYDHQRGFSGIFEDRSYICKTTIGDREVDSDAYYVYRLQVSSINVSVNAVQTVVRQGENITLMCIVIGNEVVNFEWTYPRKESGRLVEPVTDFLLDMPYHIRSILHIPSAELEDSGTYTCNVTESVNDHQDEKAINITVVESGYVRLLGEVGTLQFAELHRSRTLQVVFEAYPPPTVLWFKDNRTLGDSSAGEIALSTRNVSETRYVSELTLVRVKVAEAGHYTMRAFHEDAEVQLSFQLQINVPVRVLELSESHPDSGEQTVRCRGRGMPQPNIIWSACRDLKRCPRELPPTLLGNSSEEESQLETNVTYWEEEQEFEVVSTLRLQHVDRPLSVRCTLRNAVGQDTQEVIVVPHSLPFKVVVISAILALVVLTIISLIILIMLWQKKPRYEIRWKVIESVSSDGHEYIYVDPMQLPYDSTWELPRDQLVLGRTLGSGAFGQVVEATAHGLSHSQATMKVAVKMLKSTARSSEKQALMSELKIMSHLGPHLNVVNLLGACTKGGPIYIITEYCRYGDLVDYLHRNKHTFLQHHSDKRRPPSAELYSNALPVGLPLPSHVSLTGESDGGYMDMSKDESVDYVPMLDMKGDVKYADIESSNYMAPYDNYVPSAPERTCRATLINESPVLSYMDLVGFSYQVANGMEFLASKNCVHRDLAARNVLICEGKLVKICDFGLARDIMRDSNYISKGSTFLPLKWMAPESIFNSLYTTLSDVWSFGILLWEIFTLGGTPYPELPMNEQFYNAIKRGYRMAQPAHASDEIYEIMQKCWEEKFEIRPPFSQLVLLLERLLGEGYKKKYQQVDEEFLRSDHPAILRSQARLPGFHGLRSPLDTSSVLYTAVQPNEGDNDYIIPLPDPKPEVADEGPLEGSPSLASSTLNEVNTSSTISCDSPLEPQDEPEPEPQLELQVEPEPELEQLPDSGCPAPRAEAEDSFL
Sequence of p70S6K(h) (P23443 whole entry): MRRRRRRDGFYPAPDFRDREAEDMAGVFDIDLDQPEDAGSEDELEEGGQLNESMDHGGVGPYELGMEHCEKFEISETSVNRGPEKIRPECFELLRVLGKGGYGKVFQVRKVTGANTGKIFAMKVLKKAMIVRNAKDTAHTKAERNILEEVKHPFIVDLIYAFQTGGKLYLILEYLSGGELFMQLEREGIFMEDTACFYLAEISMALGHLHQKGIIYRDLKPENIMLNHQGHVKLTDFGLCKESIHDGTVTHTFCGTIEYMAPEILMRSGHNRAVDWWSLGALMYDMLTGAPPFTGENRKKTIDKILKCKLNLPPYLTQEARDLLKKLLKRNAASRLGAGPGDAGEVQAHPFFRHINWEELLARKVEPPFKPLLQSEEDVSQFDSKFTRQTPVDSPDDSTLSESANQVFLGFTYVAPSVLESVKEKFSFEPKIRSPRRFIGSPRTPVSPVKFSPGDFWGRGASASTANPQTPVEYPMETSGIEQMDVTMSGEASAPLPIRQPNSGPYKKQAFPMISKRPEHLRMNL
Sequence of Abl(h) (P00519 whole entry): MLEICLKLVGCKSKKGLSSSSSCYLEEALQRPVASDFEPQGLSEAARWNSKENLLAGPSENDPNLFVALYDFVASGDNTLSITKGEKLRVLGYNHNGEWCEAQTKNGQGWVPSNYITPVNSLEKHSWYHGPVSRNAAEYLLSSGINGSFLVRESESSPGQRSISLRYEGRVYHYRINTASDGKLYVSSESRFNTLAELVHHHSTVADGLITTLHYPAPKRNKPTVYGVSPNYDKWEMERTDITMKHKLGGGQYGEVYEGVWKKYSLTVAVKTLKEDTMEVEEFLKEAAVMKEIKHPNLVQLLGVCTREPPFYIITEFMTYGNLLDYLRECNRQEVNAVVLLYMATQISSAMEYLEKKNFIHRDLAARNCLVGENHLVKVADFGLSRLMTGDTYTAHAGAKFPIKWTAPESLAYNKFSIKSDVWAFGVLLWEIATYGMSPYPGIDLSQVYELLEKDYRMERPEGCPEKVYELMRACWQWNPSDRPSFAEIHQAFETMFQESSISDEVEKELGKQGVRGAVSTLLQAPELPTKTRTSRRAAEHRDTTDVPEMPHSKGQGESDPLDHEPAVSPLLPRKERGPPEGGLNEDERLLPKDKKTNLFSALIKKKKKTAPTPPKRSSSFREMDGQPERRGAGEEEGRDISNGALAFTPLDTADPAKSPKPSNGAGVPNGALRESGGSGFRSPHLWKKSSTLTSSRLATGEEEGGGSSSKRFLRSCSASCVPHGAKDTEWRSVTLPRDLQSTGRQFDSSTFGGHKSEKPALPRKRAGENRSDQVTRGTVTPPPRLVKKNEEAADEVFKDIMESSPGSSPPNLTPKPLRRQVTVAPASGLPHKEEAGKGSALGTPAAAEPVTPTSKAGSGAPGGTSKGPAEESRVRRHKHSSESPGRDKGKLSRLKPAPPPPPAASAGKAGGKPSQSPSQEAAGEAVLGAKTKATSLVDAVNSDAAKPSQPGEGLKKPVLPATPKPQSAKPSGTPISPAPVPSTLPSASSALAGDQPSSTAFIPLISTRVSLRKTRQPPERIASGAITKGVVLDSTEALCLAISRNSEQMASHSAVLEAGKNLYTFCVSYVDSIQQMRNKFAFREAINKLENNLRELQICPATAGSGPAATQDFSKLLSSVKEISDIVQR
Sequence of PI3 Kinase (p110β/p85α)(h) (P42338 whole entry): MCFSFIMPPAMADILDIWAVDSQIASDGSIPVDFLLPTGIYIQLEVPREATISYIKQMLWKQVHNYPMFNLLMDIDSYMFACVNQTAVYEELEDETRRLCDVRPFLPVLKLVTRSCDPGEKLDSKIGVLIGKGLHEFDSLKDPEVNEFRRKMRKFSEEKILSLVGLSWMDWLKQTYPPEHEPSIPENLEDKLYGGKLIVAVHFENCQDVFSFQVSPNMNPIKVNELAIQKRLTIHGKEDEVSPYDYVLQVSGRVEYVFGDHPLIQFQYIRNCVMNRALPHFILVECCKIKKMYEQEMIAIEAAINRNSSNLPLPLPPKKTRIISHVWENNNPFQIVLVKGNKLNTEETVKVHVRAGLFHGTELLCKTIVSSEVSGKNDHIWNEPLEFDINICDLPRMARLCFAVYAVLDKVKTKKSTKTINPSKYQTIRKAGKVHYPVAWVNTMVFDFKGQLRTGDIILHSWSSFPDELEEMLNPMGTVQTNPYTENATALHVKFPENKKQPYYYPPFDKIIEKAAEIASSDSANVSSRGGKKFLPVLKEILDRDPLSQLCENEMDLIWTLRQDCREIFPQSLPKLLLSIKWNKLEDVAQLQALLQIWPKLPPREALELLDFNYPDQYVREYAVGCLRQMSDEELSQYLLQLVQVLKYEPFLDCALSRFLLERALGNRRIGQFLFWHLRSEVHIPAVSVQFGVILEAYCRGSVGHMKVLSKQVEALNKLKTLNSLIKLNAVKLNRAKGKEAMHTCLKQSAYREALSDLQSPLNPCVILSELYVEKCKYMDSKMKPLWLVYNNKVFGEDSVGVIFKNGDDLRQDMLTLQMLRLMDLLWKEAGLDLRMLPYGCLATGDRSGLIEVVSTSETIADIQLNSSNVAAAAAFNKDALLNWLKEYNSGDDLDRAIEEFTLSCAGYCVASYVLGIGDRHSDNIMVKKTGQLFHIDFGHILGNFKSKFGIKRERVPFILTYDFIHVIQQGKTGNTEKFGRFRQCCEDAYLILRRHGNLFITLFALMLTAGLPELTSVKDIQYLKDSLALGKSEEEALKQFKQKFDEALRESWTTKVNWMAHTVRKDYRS
Sequence of PI3 Kinase (p110β/p85α)(h) (P27986 whole entry partner): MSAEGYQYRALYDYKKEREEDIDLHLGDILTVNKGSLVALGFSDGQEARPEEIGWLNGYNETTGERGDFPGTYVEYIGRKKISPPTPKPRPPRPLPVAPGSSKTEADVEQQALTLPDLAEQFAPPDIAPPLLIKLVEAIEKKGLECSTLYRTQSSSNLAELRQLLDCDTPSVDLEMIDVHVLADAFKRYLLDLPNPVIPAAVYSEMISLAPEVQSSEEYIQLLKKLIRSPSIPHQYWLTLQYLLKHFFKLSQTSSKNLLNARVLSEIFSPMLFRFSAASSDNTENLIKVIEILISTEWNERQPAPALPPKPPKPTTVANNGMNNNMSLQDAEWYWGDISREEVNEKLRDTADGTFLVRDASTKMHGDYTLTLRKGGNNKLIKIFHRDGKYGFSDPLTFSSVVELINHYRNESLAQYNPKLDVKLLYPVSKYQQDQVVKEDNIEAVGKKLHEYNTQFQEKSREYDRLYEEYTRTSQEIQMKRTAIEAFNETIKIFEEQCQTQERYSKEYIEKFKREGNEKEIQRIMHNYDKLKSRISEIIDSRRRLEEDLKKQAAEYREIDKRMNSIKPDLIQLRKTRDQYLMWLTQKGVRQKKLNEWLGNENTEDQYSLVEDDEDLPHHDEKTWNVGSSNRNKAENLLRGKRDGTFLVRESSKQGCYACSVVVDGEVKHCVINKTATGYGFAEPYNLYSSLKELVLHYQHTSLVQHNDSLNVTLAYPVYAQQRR
Sequence of CK2α2(h) (P19784 whole entry): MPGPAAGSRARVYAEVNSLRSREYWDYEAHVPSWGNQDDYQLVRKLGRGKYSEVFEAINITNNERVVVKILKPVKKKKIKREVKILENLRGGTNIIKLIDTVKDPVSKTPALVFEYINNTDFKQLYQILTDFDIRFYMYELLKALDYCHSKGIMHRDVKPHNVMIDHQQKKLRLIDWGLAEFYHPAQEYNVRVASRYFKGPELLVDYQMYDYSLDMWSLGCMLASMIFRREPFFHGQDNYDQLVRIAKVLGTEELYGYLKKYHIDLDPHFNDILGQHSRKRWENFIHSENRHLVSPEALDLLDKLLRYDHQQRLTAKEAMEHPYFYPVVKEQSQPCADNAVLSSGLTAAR

Cc1ccc2c(Nc3cccc(OC(F)(F)F)c3)nccc2c1Nc1ncccc1-c1ncnc2[nH]cnc12 [LUT014]
IC50 [1]: 13.3 nM | IC50 [2]: 11.7 nM | phototoxicity (3T3 NRU), stated in words [3]: Lut014 is classified as non-phototoxic | maximum accumulated level of LUT014 in the receptor solution [4]: less than 2 ng/mL | tolerability [5]: well tolerated in minipigs at | mutagenicity, Salmonella typhimurium reverse mutation assay [6]: not mutagenic | mutagenicity, Escherichia coli reverse mutation assay [7]: not mutagenic | IVIS [8]: ≤ 3 | classification for eye irritation or serious eye damage [8]: no classification is required | remaining activity at 0.01 µM ([9]; Lut014 @ 0.01 μM): 92% | remaining activity at 1 µM ([9]; Lut014 @ 1 μM): 25% | remaining activity at 0.01 µM ([10]; Lut014 @ 0.01 μM): 106% | remaining activity at 1 µM ([10]; Lut014 @ 1 μM): 95% | remaining activity at 0.01 µM ([11]; Lut014 @ 0.01 μM): 98% | remaining activity at 1 µM ([11]; Lut014 @ 1 μM): 92% | remaining activity at 0.01 µM ([12]; Lut014 @ 0.01 μM): 93% | remaining activity at 1 µM ([12]; Lut014 @ 1 μM): 38% | remaining activity at 0.01 µM ([13]; Lut014 @ 0.01 μM): 103% | remaining activity at 1 µM ([13]; Lut014 @ 1 μM): 95% | remaining activity at 0.01 µM ([14]; Lut014 @ 0.01 μM): 88% | remaining activity at 1 µM ([14]; Lut014 @ 1 μM): 86% | remaining activity at 0.01 µM ([15]; Lut014 @ 0.01 μM): 126% | remaining activity at 1 µM ([15]; Lut014 @ 1 μM): 118% | remaining activity at 0.01 µM ([16]; Lut014 @ 0.01 μM): 101% | remaining activity at 1 µM ([16]; Lut014 @ 1 μM): 46% | remaining activity at 0.01 µM ([17]; Lut014 @ 0.01 μM): 98% | remaining activity at 1 µM ([17]; Lut014 @ 1 μM): 125% | remaining activity at 0.01 µM ([18]; Lut014 @ 0.01 μM): 95% | remaining activity at 1 µM ([18]; Lut014 @ 1 μM): 111% | remaining activity at 0.01 µM ([19]; Lut014 @ 0.01 μM): 98% | remaining activity at 1 µM ([19]; Lut014 @ 1 μM): 103% | remaining activity at 0.01 µM ([20]; Lut014 @ 0.01 μM): 101% | remaining activity at 1 µM ([20]; Lut014 @ 1 μM): 95% | remaining activity at 0.01 µM ([21]; Lut014 @ 0.01 μM): 99% | remaining activity at 1 µM ([21]; Lut014 @ 1 μM): 111% | remaining activity at 0.01 µM ([22]; Lut014 @ 0.01 μM): 108% | remaining activity at 1 µM ([22]; Lut014 @ 1 μM): 97%
